Data published in the supplement of paper PMC5908809.

Tests used:
[1] = test system: normal NK cells expanded with K562-aAPC; assay: percent inhibition of viability; higher = more inhibition; details: 72 h, IL-2 2.5 ng/mL
Description: (§1)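 Drug sensitivity and resistance testing on K562-aAPC-expanded normal NK cells: 5 concentrations (10-fold steps over a 10,000-fold range), 72 h at 37 °C, viability by CellTiter-Glo normalised to DMSO and benzethonium chloride controls; DSS from the fitted curve.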

[2] = test system: normal primary NK cells, pool 1 (3 donors), resting (IL-2 0 ng/mL); assay: as above; details: 72 h
[3] = test system: normal primary NK cells, pool 1 (3 donors) (IL-2 2.5 ng/mL); assay: as above; details: 72 h
IMC-1 (IL-2 20 ng/mL) [4] = assay: as above; details: 72 h
KAI3 (IL-2 2.5 ng/mL) [5] = assay: as above; details: 72 h
NK-YS (IL-2 2.5 ng/mL) [6] = assay: as above; details: 72 h
NKL (IL-2 2.5 ng/mL) [7] = assay: as above; details: 72 h
DERL-7 (IL-2 2.5 ng/mL) [8] = assay: as above; details: 72 h
KHYG-1 (IL-2 2.5 ng/mL) [9] = assay: as above; details: 72 h
YT (IL-2 2.5 ng/mL) [10] = assay: as above; details: 72 h
[11] = test system: normal primary NK cells, pool 3 (3 donors) (IL-2 2.5 ng/mL); assay: as above; details: 72 h
SNK-6 (IL-2 2.5 ng/mL) [12] = assay: as above; details: 72 h
NK-92 (IL-2 2.5 ng/mL) [13] = assay: as above; details: 72 h
[14] = test system: normal primary NK cells, pool 2 (3 donors) (IL-2 2.5 ng/mL); assay: as above; details: 72 h
[15] = test system: normal NK cells expanded with K562-aAPC; assay: drug sensitivity score (DSS) (DSS units); higher = more sensitive; extreme values may be limits of the assay; details: 72 h; IL-2 2.5 ng/mL
Description: as §1

[16] = test system: normal primary NK cells, pool 1 (3 donors), resting (IL-2 0 ng/mL); assay: as above; details: 72 h
[17] = test system: normal primary NK cells, pool 1 (3 donors) (IL-2 2.5 ng/mL); assay: as above; details: 72 h
IMC-1 (IL-2 20 ng/mL) [18] = assay: as above; details: 72 h
KAI3 (IL-2 2.5 ng/mL) [19] = assay: as above; details: 72 h
NK-YS (IL-2 2.5 ng/mL) [20] = assay: as above; details: 72 h
NKL (IL-2 2.5 ng/mL) [21] = assay: as above; details: 72 h
DERL-7 (IL-2 2.5 ng/mL) [22] = assay: as above; details: 72 h
KHYG-1 (IL-2 2.5 ng/mL) [23] = assay: as above; details: 72 h
YT (IL-2 2.5 ng/mL) [24] = assay: as above; details: 72 h
[25] = test system: normal primary NK cells, pool 3 (3 donors) (IL-2 2.5 ng/mL); assay: as above; details: 72 h
SNK-6 (IL-2 2.5 ng/mL) [26] = assay: as above; details: 72 h
NK-92 (IL-2 2.5 ng/mL) [27] = assay: as above; details: 72 h
[28] = test system: normal primary NK cells, pool 2 (3 donors) (IL-2 2.5 ng/mL); assay: as above; details: 72 h

O=C(CCCCCCC(=O)Nc1ccccc1)NO [Vorinostat] (max concentration tested 10000 nM)
percent inhibition of viability [%]
Details | 1 nM | 10 nM | 100 nM | 1000 nM | 10000 nM
DERL-7 (IL-2 2.5 ng/mL) [8] | -1.03 | -2.59 | -8.59 | 72 | 101
IMC-1 (IL-2 20 ng/mL) [4] | -3.93 | -0.96 | -3.21 | 10.4 | 101
KAI3 (IL-2 2.5 ng/mL) [5] | -1.17 | 1.24 | 28.6 | 72.4 | 106
KHYG-1 (IL-2 2.5 ng/mL) [9] | -10.8 | -5.48 | -3.11 | 83.4 | 108
NK-92 (IL-2 2.5 ng/mL) [13] | -12.1 | -8.53 | 8.96 | 76.6 | 107
NK-YS (IL-2 2.5 ng/mL) [6] | -9.89 | -6.61 | -3.67 | 40.2 | 105
NKL (IL-2 2.5 ng/mL) [7] | -8.87 | -13.6 | 15.1 | 78.1 | 107
SNK-6 (IL-2 2.5 ng/mL) [12] | 1.27 | -7.67 | 9.77 | 59.8 | 100
YT (IL-2 2.5 ng/mL) [10] | -0.8 | -1.86 | 3.47 | 27.2 | 106
[1] | -0.79 | -2.42 | 2.48 | 56.2 | 100
[2] | -1.81 | 11.6 | 10.4 | 71.9 | 90.8
[3] | 10.5 | 10 | 21.7 | 67.8 | 98.3
[11] | -8.36 | -6.48 | 0.69 | 14.9 | 98.3
[14] | -5.53 | -2.6 | -3.11 | 42.6 | 96.4

Details | drug sensitivity score
DERL-7 (IL-2 2.5 ng/mL) [22] | 13.7
IMC-1 (IL-2 20 ng/mL) [18] | 7.28
KAI3 (IL-2 2.5 ng/mL) [19] | 17.3
KHYG-1 (IL-2 2.5 ng/mL) [23] | 15.2
NK-92 (IL-2 2.5 ng/mL) [27] | 15.4
NK-YS (IL-2 2.5 ng/mL) [20] | 10.9
NKL (IL-2 2.5 ng/mL) [21] | 16.4
SNK-6 (IL-2 2.5 ng/mL) [26] | 13
YT (IL-2 2.5 ng/mL) [24] | 9.63
[15] | 12.2
[16] | 14.8
[17] | 15.7
[25] | 7.93
[28] | 10.8

O=C(Nc1cc(Cl)cc2c1[nH]c1cnccc12)c1cccnc1 [PS-1145] (max concentration tested 25000 nM)
percent inhibition of viability [%]
Details | 2.5 nM | 25 nM | 250 nM | 2500 nM | 25000 nM
DERL-7 (IL-2 2.5 ng/mL) [8] | -3.2 | -13 | 1.95 | -4.1 | -8.03
IMC-1 (IL-2 20 ng/mL) [4] | -6.22 | -1.55 | 3.4 | 7.36 | 16
KAI3 (IL-2 2.5 ng/mL) [5] | 5.94 | 6.21 | 4.4 | 48.5 | 75
KHYG-1 (IL-2 2.5 ng/mL) [9] | 5.69 | 5.58 | 12.9 | 7.66 | 16.4
NK-92 (IL-2 2.5 ng/mL) [13] | -0.17 | -20.2 | -5.95 | 4.6 | 23.6
NK-YS (IL-2 2.5 ng/mL) [6] | 0.26 | 0.9 | 2.11 | 7.41 | 11.3
NKL (IL-2 2.5 ng/mL) [7] | 12.7 | 11.1 | 10.4 | 9.5 | 20.8
SNK-6 (IL-2 2.5 ng/mL) [12] | -11.2 | 3.19 | -6.13 | 14.1 | 16.6
YT (IL-2 2.5 ng/mL) [10] | 3.94 | 1.19 | 1.07 | 4.91 | 13.9
[1] | 2.02 | 0.77 | -1.48 | -6.16 | 6.75
[2] | -26.1 | -30.6 | 0.68 | -5.12 | -6.42
[3] | 5.83 | -8.31 | 15.4 | 7.93 | 11.5
[11] | -2.28 | -6.49 | 7.93 | 14.6 | 10.4
[14] | -19.7 | -10.7 | 3.18 | 6.82 | 10.1

Details | drug sensitivity score
DERL-7 (IL-2 2.5 ng/mL) [22] | 0
IMC-1 (IL-2 20 ng/mL) [18] | 0.51
KAI3 (IL-2 2.5 ng/mL) [19] | 10.1
KHYG-1 (IL-2 2.5 ng/mL) [23] | 0.87
NK-92 (IL-2 2.5 ng/mL) [27] | 1.52
NK-YS (IL-2 2.5 ng/mL) [20] | 0.04
NKL (IL-2 2.5 ng/mL) [21] | 0
SNK-6 (IL-2 2.5 ng/mL) [26] | 1.45
YT (IL-2 2.5 ng/mL) [24] | 0.38
[15] | 0
[16] | 0
[17] | 0.64
[25] | 1.86
[28] | 0

O=P1(NCCCl)OCCCN1CCCl (configuration not stated) [Ifosfamide] (max concentration tested 10000 nM)
percent inhibition of viability [%]
Details | 1 nM | 10 nM | 100 nM | 1000 nM | 10000 nM
DERL-7 (IL-2 2.5 ng/mL) [8] | -5.51 | -7.54 | -1.33 | -3.22 | -6.83
IMC-1 (IL-2 20 ng/mL) [4] | -7.45 | -2.99 | -8.91 | -4.46 | -9.5
KAI3 (IL-2 2.5 ng/mL) [5] | -7.61 | -11.2 | -10.2 | -6.62 | -0.66
KHYG-1 (IL-2 2.5 ng/mL) [9] | -2.87 | -4.29 | -7.54 | -5.28 | -6.85
NK-92 (IL-2 2.5 ng/mL) [13] | -16.3 | -6.46 | -7.42 | -21.1 | -17.7
NK-YS (IL-2 2.5 ng/mL) [6] | -1.93 | -4.42 | -4.13 | 1.8 | -4.59
NKL (IL-2 2.5 ng/mL) [7] | -15.9 | -21.4 | -20.8 | -20.4 | -25.2
SNK-6 (IL-2 2.5 ng/mL) [12] | 9.44 | 6.95 | -7.05 | -1.13 | -14.1
YT (IL-2 2.5 ng/mL) [10] | -4.47 | -6.22 | -6.55 | -4.33 | -5.88
[1] | -2.46 | -7.15 | -2.89 | -5.04 | -1.58
[2] | -18.3 | -6.52 | 1.44 | -5.18 | 12.7
[3] | -11.2 | -7.35 | -2.79 | -2.71 | 1.61
[11] | -13.4 | -7.36 | -10.1 | -8.46 | -1.46
[14] | -7.91 | -9.22 | -9.46 | -8.83 | -4.62

Details | drug sensitivity score
DERL-7 (IL-2 2.5 ng/mL) [22] | 0
IMC-1 (IL-2 20 ng/mL) [18] | 0
KAI3 (IL-2 2.5 ng/mL) [19] | 0
KHYG-1 (IL-2 2.5 ng/mL) [23] | 0
NK-92 (IL-2 2.5 ng/mL) [27] | 0
NK-YS (IL-2 2.5 ng/mL) [20] | 0
NKL (IL-2 2.5 ng/mL) [21] | 0
SNK-6 (IL-2 2.5 ng/mL) [26] | 0
YT (IL-2 2.5 ng/mL) [24] | 0
[15] | 0
[16] | 0.02
[17] | 0
[25] | 0
[28] | 0
